Test results taken from US12036197B2, “Composition for improving bioavailability of drugs” (priority 2019, dated 2024).
Where a SMILES comes first, the peptide text is derived from it.

Columns and labels:
[1] = PK test for small-intestinal administration of ACTH (ELISA); type: in vivo; conditions: SD rats
Description: (§1) Laboratory Animals: Adult Male SD Rats.
(§2) The plasma was collected and subjected to quick freezing.

[2] = PK test for small-intestinal administration of Bivalirudin (ELISA); type: in vivo; conditions: SD rats
Description: as §1, §2

[3] = in vivo
Description: as §1, §2

[4] = PK test for small-intestinal administration of Octreotide (ELISA); type: in vivo; conditions: SD rats
Description: as §1, §2

[5] = PK test for small-intestinal administration of Oxytocin (ELISA); type: in vivo; conditions: SD rats
Description: as §1, §2

[6] = PK test for small-intestinal administration of Teduglutide (ELISA); type: in vivo; conditions: SD rats
Description: The composition of the present invention: Tween 80, Carbomer 910, carboxymethyl Chitosan, and Sodium Tartrate, in a weight ratio of 25:8:8:80.
as §1, §2

[7] = PK test for small-intestinal administration of Teriparatide (ELISA); type: in vivo; conditions: SD rats
Description: as §1, §2

[8] = PK test for small-intestinal administration of Thymosin alpha-1 (ELISA); type: in vivo; conditions: SD rats
Description: as §1, §2

[9] = PK test for small-intestinal administration of Vasopressin (ELISA); type: in vivo; conditions: SD rats
Description: as §1, §2

[10] = PK test for small-intestinal administration of Gramicidin (ELISA); type: in vivo; conditions: SD rats
Description: as §1, §2

[11] = PK test for small-intestinal administration of Growth Hormone (ELISA); type: in vivo; conditions: SD rats
Description: as §1, §2

[12] = PK test for small-intestinal administration of Mecasermin (ELISA); type: in vivo; conditions: SD rats
Description: as §1, §2

[13] = small-intestinal administration at 200 μg/kg without composition
[14] = rat, in vivo, ei 200 μg/kg with composition sodium lauryl sulfate, carbomer, chitosan, sodium citrate 20:6.5:6.5:65 (1:5), vs iv 1 μg/kg

CSCC[C@H](NC(=O)[C@H](CO)NC(=O)[C@H](Cc1ccc(O)cc1)NC(=O)[C@@H](N)CO)C(=O)N[C@@H](CCC(=O)O)C(=O)N[C@@H](Cc1cnc[nH]1)C(=O)N[C@@H](Cc1ccccc1)C(=O)N[C@@H](CCCNC(=N)N)C(=O)N[C@@H](Cc1c[nH]c2ccccc12)C(=O)NCC(=O)N[C@@H](CCCCN)C(=O)N1CCC[C@H]1C(=O)N[C@H](C(=O)NCC(=O)N[C@@H](CCCCN)C(=O)N[C@@H](CCCCN)C(=O)N[C@@H](CCCNC(=N)N)C(=O)N[C@@H](CCCNC(=N)N)C(=O)N1CCC[C@H]1C(=O)N[C@H](C(=O)N[C@@H](CCCCN)C(=O)N[C@H](C(=O)N[C@@H](Cc1ccc(O)cc1)C(=O)N1CCC[C@H]1C(=O)N[C@@H](CC(N)=O)C(=O)NCC(=O)N[C@@H](C)C(=O)N[C@@H](CCC(=O)O)C(=O)N[C@@H](CC(=O)O)C(=O)N[C@@H](CCC(=O)O)C(=O)N[C@@H](CO)C(=O)N[C@@H](C)C(=O)N[C@@H](CCC(=O)O)C(=O)N[C@@H](C)C(=O)N[C@@H](Cc1ccccc1)C(=O)N1CCC[C@H]1C(=O)N[C@@H](CC(C)C)C(=O)N[C@@H](CCC(=O)O)C(=O)N[C@@H](Cc1ccccc1)C(=O)O)C(C)C)C(C)C)C(C)C [ACTH] (H-SYSMEHFRWGKPVGKKRRPVKVYPNGAEDESAEAFPLEF-OH)
blood concentration [1, 13]: lower than the detection limit of ELISA | bioavailability [1, 14]: 1.86%

CC[C@H](C)[C@H](NC(=O)[C@H](CCC(=O)O)NC(=O)[C@H](CCC(=O)O)NC(=O)[C@H](Cc1ccccc1)NC(=O)[C@H](CC(=O)O)NC(=O)CNC(=O)[C@H](CC(N)=O)NC(=O)CNC(=O)CNC(=O)CNC(=O)CNC(=O)[C@@H]1CCCN1C(=O)[C@H](CCCNC(=N)N)NC(=O)[C@@H]1CCCN1C(=O)[C@H](N)Cc1ccccc1)C(=O)N1CCC[C@H]1C(=O)N[C@@H](CCC(=O)O)C(=O)N[C@@H](CCC(=O)O)C(=O)N[C@@H](Cc1ccc(O)cc1)C(=O)N[C@@H](CC(C)C)C(=O)O [Bivalirudin]
blood concentration [2, 13]: lower than the detection limit of ELISA | bioavailability ([2]; rat, in vivo, ei 200 μg/kg with composition sodium lauryl sulfate, carbomer, chitosan, citric acid 19:6.5:7:67 (1:5), vs iv 1 μg/kg): 1.63%

CC(C)C[C@H](NC(=O)CNC(=O)[C@H](Cc1ccc(O)cc1)NC(=O)[C@H](CO)NC(=O)[C@H](Cc1c[nH]c2ccccc12)NC(=O)[C@H](Cc1cnc[nH]1)NC(=O)[C@@H]1CCC(=O)N1)C(=O)N[C@@H](CCCNC(=N)N)C(=O)N1CCC[C@H]1C(=O)NCC(N)=O [Gonadorelin]
blood concentration ([3]; SD rats, small-intestinal administration at 200 μg/kg without composition): lower than the detection limit of ELISA | bioavailability ([3]; male, SD, rat, plasma, 200 μg/kg): 1.58%

C[C@@H](O)[C@@H]1NC(=O)[C@H](CCCCN)NC(=O)[C@@H](Cc2c[nH]c3ccccc23)NC(=O)[C@H](Cc2ccccc2)NC(=O)[C@@H](NC(=O)[C@H](N)Cc2ccccc2)CSSC[C@@H](C(=O)N[C@H](CO)[C@@H](C)O)NC1=O [Octreotide]
blood concentration [4, 13]: lower than the detection limit of ELISA | bioavailability ([4]; male, rat, plasma, ei 200 μg/kg with composition sodium lauryl sulfate, carbomer, chitosan, sodium citrate 21:7:6:69 (1:5), vs iv 1 μg/kg): 1.71%

CC[C@H](C)[C@@H]1NC(=O)[C@H](Cc2ccc(O)cc2)NC(=O)[C@@H](N)CSSC[C@@H](C(=O)N2CCC[C@H]2C(=O)N[C@@H](CC(C)C)C(=O)NCC(N)=O)NC(=O)[C@H](CC(N)=O)NC(=O)[C@H](CCC(N)=O)NC1=O [Oxytocin]
blood concentration [5, 13]: lower than the detection limit of ELISA | bioavailability ([5]; male, rat, plasma, ei 200 μg/kg with composition sodium lauryl sulfate, carbomer 934, water-soluble chitosan, disodium edetate 24:7.5:7:75 (1:5), vs iv 1 μg/kg): 2.58%

CC[C@H](C)[C@H](NC(=O)[C@H](Cc1ccccc1)NC(=O)[C@H](CC(=O)O)NC(=O)[C@H](CCCNC(=N)N)NC(=O)[C@H](C)NC(=O)[C@H](C)NC(=O)[C@H](CC(C)C)NC(=O)[C@H](CC(N)=O)NC(=O)[C@H](CC(=O)O)NC(=O)[C@H](CC(C)C)NC(=O)[C@@H](NC(=O)[C@@H](NC(=O)[C@H](CC(N)=O)NC(=O)[C@H](CCSC)NC(=O)[C@H](CCC(=O)O)NC(=O)[C@H](CC(=O)O)NC(=O)[C@H](CO)NC(=O)[C@H](Cc1ccccc1)NC(=O)[C@H](CO)NC(=O)CNC(=O)[C@H](CC(=O)O)NC(=O)CNC(=O)[C@@H](N)Cc1c[nH]cn1)[C@@H](C)O)[C@@H](C)CC)C(=O)N[C@@H](CC(N)=O)C(=O)N[C@@H](Cc1c[nH]c2ccccc12)C(=O)N[C@@H](CC(C)C)C(=O)N[C@H](C(=O)N[C@@H](CCC(N)=O)C(=O)N[C@H](C(=O)N[C@@H](CCCCN)C(=O)N[C@H](C(=O)N[C@H](C(=O)N[C@@H](CC(=O)O)C(=O)O)[C@@H](C)O)[C@@H](C)CC)[C@@H](C)O)[C@@H](C)CC [Teduglutide]
blood concentration [6, 13]: lower than the detection limit of ELISA | bioavailability ([6]; male, rat, plasma, ei 200 μg/kg with composition Tween 80, Carbomer 910, carboxymethyl Chitosan, Sodium Tartrate 25:8:8:80 (1:5), vs iv 1 μg/kg): 2.13%

CC[C@H](C)[C@H](NC(=O)[C@H](CCC(=O)O)NC(=O)[C@H](CO)NC(=O)[C@@H](NC(=O)[C@@H](N)CO)C(C)C)C(=O)N[C@@H](CCC(N)=O)C(=O)N[C@@H](CC(C)C)C(=O)N[C@@H](CCSC)C(=O)N[C@@H](Cc1cnc[nH]1)C(=O)N[C@@H](CC(N)=O)C(=O)N[C@@H](CC(C)C)C(=O)NCC(=O)N[C@@H](CCCCN)C(=O)N[C@@H](Cc1cnc[nH]1)C(=O)N[C@@H](CC(C)C)C(=O)N[C@@H](CC(N)=O)C(=O)N[C@@H](CO)C(=O)N[C@@H](CCSC)C(=O)N[C@@H](CCC(=O)O)C(=O)N[C@@H](CCCN=C(N)N)C(=O)N[C@H](C(=O)N[C@@H](CCC(=O)O)C(=O)N[C@@H](Cc1c[nH]c2ccccc12)C(=O)N[C@@H](CC(C)C)C(=O)N[C@@H](CCCN=C(N)N)C(=O)N[C@@H](CCCCN)C(=O)N[C@@H](CCCCN)C(=O)N[C@@H](CC(C)C)C(=O)N[C@@H](CCC(N)=O)C(=O)N[C@@H](CC(=O)O)C(=O)N[C@H](C(=O)N[C@@H](Cc1cnc[nH]1)C(=O)N[C@@H](CC(N)=O)C(=O)N[C@@H](Cc1ccccc1)C(=O)O)C(C)C)C(C)C [Teriparatide]
blood concentration [7, 13]: lower than the detection limit of ELISA | bioavailability ([7]; male, rat, plasma, ei 200 μg/kg with composition sodium lauryl sulfate, carbomer, chitosan, sodium citrate 20:6.5:6.5:65 (1:5), vs iv 1 μg/kg): 2.08%

CC[C@H](C)[C@H](NC(=O)[C@H](CCC(=O)O)NC(=O)[C@H](CO)NC(=O)[C@H](CO)NC(=O)[C@@H](NC(=O)[C@H](CC(=O)O)NC(=O)[C@@H](NC(=O)[C@H](C)NC(=O)[C@H](C)NC(=O)[C@H](CC(=O)O)NC(=O)[C@H](CO)NC(C)=O)C(C)C)[C@@H](C)O)C(=O)N[C@H](C(=O)N[C@H](C(=O)N[C@@H](CCCCN)C(=O)N[C@@H](CC(=O)O)C(=O)N[C@@H](CC(C)C)C(=O)N[C@@H](CCCCN)C(=O)N[C@@H](CCC(=O)O)C(=O)N[C@@H](CCCCN)C(=O)N[C@@H](CCCCN)C(=O)N[C@@H](CCC(=O)O)C(=O)N[C@H](C(=O)N[C@H](C(=O)N[C@@H](CCC(=O)O)C(=O)N[C@@H](CCC(=O)O)C(=O)N[C@@H](C)C(=O)N[C@@H](CCC(=O)O)C(=O)N[C@@H](CC(N)=O)C(=O)O)C(C)C)C(C)C)[C@@H](C)O)[C@@H](C)O [Thymosin alpha-1] (Ac-SDAAVDTSSEITTKDLKEKKEVVEEAEN-OH)
blood concentration [8, 13]: lower than the detection limit of ELISA | bioavailability [8, 14]: 0.65%

NC(=O)CC[C@@H]1NC(=O)[C@H](Cc2ccccc2)NC(=O)[C@H](Cc2ccc(O)cc2)NC(=O)[C@@H](N)CSSC[C@@H](C(=O)N2CCC[C@H]2C(=O)N[C@@H](CCCN=C(N)N)C(=O)NCC(N)=O)NC(=O)[C@H](CC(N)=O)NC1=O [Vasopressin]
blood concentration [9, 13]: lower than the detection limit of ELISA | bioavailability ([9]; male, rat, plasma, ei 200 μg/kg with composition sodium lauryl sulfate, carbomer, chitosan, sodium citrate 23:8:7.5:80 (1:5), vs iv 1 μg/kg): 1.81%

Gramicidin D
bioavailability of small-intestinal administration ([10]; ei 200 μg/kg with composition sodium lauryl sulfate, carbomer, chitosan, sodium citrate 19:6:6:60 (1:5), vs iv 1 μg/kg): 1.18% | blood concentration [10, 13]: lower than the detection limit of ELISA

Growth Hormone: Growth Hormone (rhGH)
bioavailability of small-intestinal administration ([11]; ei 200 μg/kg with composition sodium lauryl sulfate, carbomer, chitosan, sodium citrate 20:6.5:6.5:65 (1:5), vs iv 1 μg/kg): 0.32% | blood concentration [11, 13]: lower than the detection limit of ELISA

Mecasermin
bioavailability of small-intestinal administration ([12]; ei 200 μg/kg with composition sodium lauryl sulfate, carbomer, chitosan, sodium citrate 21:6:7:65 (1:5), vs iv 1 μg/kg): 1.38% | blood concentration [12, 13]: lower than the detection limit of ELISA
